The results in this text go back to patent publication US9091678B2, “Method for identifying compounds useful for treating and/or preventing disease-associated bone loss” (priority 2008, dated 2015).

Each structure is given as a SMILES string.

The subject of the first series is RAW264.7 cells differentiated in osteoclasts. Nature of the series: Toxicity test on differentiated osteoclasts (TRAP staining, morphology). It counts as cell-based. The arrangement: key: compounds which induce the death of all the osteoclasts after 72 hours (−); compounds which induce morphological anomalies and/or death of part of the osteoclasts (+/−); +: Compounds which do not induce visible modifications of the osteoclasts. To be noted: at the concentration given in Table 2, vs 0.5% DMSO control. How it is done:
The compounds were tested for their toxicity on differentiated osteoclasts at the concentration determined above. RAW264.7 cells differentiated in osteoclasts were allowed to grow for 72 hours in presence of the tested compounds. […] This osteoclasts specific labeling permits to visualize the cell morphology. The cell morphology was then compared to control cells which were allowed to grow in presence of 0.5% DMSO.
Take `CCOc1ccc(NC(=O)CSc2nnc(-c3ccc(OC)cc3)o2)cc1` [Compound 3, N-(4-ethoxyphenyl)-2-{[5-(4-methoxyphenyl)-1,3,4-oxadiazol-2-yl]thio}acetamide]: the “Survival at 72 hours” value is “+/−”.

For `O=C(O)CCC(=O)N1N=C(c2ccc([N+](=O)[O-])cc2)CC1c1ccc(Br)cc1` (stereo not drawn) [Compound 4, 4-[5-(4-bromophenyl)-3-(4-nitrophenyl)-4,5-dihydro-1H-pyrazol-1-yl]-4-oxobutanoic acid], the “Survival at 72 hours” value is “−”.

Take `Cc1ccc(N(C(=O)C(Cl)(Cl)Cl)C2C=CS(=O)(=O)C2)cc1` (stereo not drawn) [Compound 5, 2,2,2-trichloro-N-(1,1-dioxido-2,3-dihydro-3-thienyl)-N-(4-methylphenyl)acetamide]: the “Survival at 72 hours” value is listed as “−”. Consider `Cc1ccc(/C=C/C(=O)Nc2ccccc2Br)o1` [Compound 6, N-(2-bromophenyl)-3-(5-methyl-2-furyl)acrylamide], for which the “Survival at 72 hours” value was “+”.

As for `O=C(COc1cccc2ccccc12)Nc1ccc2c(c1)OCCO2` [Compound 10, N-(2,3-dihydro-1,4-benzodioxin-6-yl)-2-(1-naphthyloxy)acetamide], the “Survival at 72 hours” value is reported as “+”. Consider `C=C1c2ccc(C)cc2NC(=O)N1c1cccc(Cl)c1` [Compound 11, 3-(3-chlorophenyl)-7-methyl-4-methylene-3,4-dihydro-2(1H)-quinazolinone], for which the “Survival at 72 hours” value is recorded as “−”. On to `O=C(COc1ccccc1Cl)Nc1cc(C(F)(F)F)ccc1Cl` [Compound 12, 2-(2-chlorophenoxy)-N-[2-chloro-5-(trifluoromethyl)phenyl]acetamide], for which the “Survival at 72 hours” value is recorded as “+”.

Turning to `CCC(=O)Nc1ccc(N2CCN(C(C)=O)CC2)cc1` [Compound 13, N-[4-(4-acetyl-1-piperazinyl)phenyl]propanamide], the “Survival at 72 hours” value is reported as “+”. Turning to `Cc1cc(=O)n2ccc(CN(C)C)c(O)c2n1` [Compound 14, 8-[(dimethylamino)methyl]-9-hydroxy-2-methyl-4H-pyrido[1,2-a]pyrimidin-4-one], the “Survival at 72 hours” value is reported as “+”. For the compound `O=C1/C(=C\c2ccc([N+](=O)[O-])cc2)SC(=S)N1c1cccc(C(F)(F)F)c1` [Compound 16, 5-(4-nitrobenzylidene)-2-thioxo-3-[3-(trifluoromethyl)phenyl]-1,3-thiazolidin-4-one], the “Survival at 72 hours” value is given as “+/−”. Still for that read-out and setting: to `CC1=NN(c2cccc(C(=O)O)c2)C(=O)/C1=C\c1cccc(Br)c1` [Compound 18, 3-[4-(3-bromobenzylidene)-3-methyl-5-oxo-4,5-dihydro-1H-pyrazol-1-yl]benzoic acid] belongs “−”. Turning to `O=C(Nc1cccc2nsnc12)c1ccc(Br)o1` [Compound 20, N-2,1,3-benzothiadiazol-4-yl-5-bromo-2-furamide], the “Survival at 72 hours” value is given as “−”. The same measure, in the same setting: to `O=C(Nc1cc(Cl)cc(Cl)c1)S(=O)(=O)c1ccccc1` [Compound 21, (3,5-dichlorophenyl)[(phenylsulfonyl)carbonyl]amine] belongs “+/−”; to `CC(=O)N1CCN(c2ccc([N+](=O)[O-])cc2Cl)CC1C` (stereo not drawn) [Compound 22, 1-acetyl-4-(2-chloro-4-nitrophenyl)-2-methylpiperazine], “−”.

For the compound `COc1cccc(/C=C2/C=C(c3ccc(C)cc3)OC2=O)c1` [Compound 23, 3-(3-methoxybenzylidene)-5-(4-methylphenyl)-2(3H)-furanone], the “Survival at 72 hours” value is “−”. With `O=C(O)/C=C/c1ccc(-c2ccc(Cl)c(Cl)c2)o1` [Compound 24, 3-[5-(3,4-dichlorophenyl)-2-furyl]acrylic acid], the “Survival at 72 hours” value is reported as “−”. Still for that read-out and setting: next, `CCOC(=O)C1=C(C)N=c2sc(=Cc3cc(Cl)c(OCC(=O)O)c(OC)c3)c(=O)n2C1c1ccccc1Cl` (stereo not drawn) [Compound 25, (2-chloro-4-{[5-(2-chlorophenyl)-6-(ethoxycarbonyl)-7-methyl-3-oxo-5H-[1,3]thiazolo[3,2-a]pyrimidin-2(3H)-ylidene]methyl}-6-methoxyphenoxy)acetic acid]: “−”; `O=S(=O)(c1cccc2nsnc12)N1CCN(C(c2ccccc2)c2ccccc2)CC1` [Compound 26, 4-{[4-(diphenylmethyl)-1-piperazinyl]sulfonyl}-2,1,3-benzothiadiazole]: “−”.

Turning to `CCOc1ccc(C(=O)Nc2ccc(N3CCN(C(C)=O)CC3)cc2)cc1[N+](=O)[O-]` [Compound 27, N-[4-(4-acetyl-1-piperazinyl)phenyl]-4-ethoxy-3-nitrobenzamide], the “Survival at 72 hours” value is recorded as “+”. Still for that read-out and setting: next, `CC(C)(C)c1cc(C2Nc3cccc4cccc(c34)N2)cc(C(C)(C)C)c1O` [Compound 30, 2,6-di-tert-butyl-4-(2,3-dihydro-1H-perimidin-2-yl)phenol]: “−”; `O=C1c2ccccc2NC(c2c(Cl)cccc2Cl)N1Cc1ccccc1` (stereo not drawn) [Compound 33, 3-benzyl-2-(2,6-dichlorophenyl)-2,3-dihydro-4(1H)-quinazolinone]: “−”. With `Oc1ccc(-c2nc(-c3ccccc3)c(-c3cccs3)[nH]2)cc1O` [Compound 34, 4-[4-phenyl-5-(2-thienyl)-1H-imidazol-2-yl]-1,2-benzenediol], the “Survival at 72 hours” value is reported as “−”. Turning to `O=Cc1cn(Cc2ccc(Cl)c(Cl)c2)c2ccccc12` [Compound 35, 1-(3,4-dichlorobenzyl)-1H-indole-3-carbaldehyde], the “Survival at 72 hours” value was “−”. On to `COc1ccc(NC(=O)c2ccc(N(C)S(=O)(=O)c3ccccc3)cc2)cc1OC` [Compound 37, N-(3,4-dimethoxyphenyl)-4-[methyl(phenylsulfonyl)amino]benzamide], for which the “Survival at 72 hours” value is given as “−”. Turning to `O=C(/C=C/c1ccc(F)cc1)Nc1ccccc1Cl` [Compound 40, N-(2-chlorophenyl)-3-(4-fluorophenyl)acrylamide], the “Survival at 72 hours” value is “+”.

Take `Oc1ccccc1C(=S)N1N=C(c2ccccc2)CC1(O)C(F)(F)F` (stereo not drawn) [Compound 42, 1-[(2-hydroxyphenyl)carbonothioyl]-3-phenyl-5-(trifluoromethyl)-4,5-dihydro-1H-pyrazol-5-ol]: the “Survival at 72 hours” value is reported as “−”.

On to `COc1cc([N+](=O)[O-])ccc1N=S(C)C` [Compound 43, 1-[(dimethyl-lambda~4~-sulfanylidene)amino]-2-methoxy-4-nitrobenzene], for which the “Survival at 72 hours” value was “+”. As for `COCCOC(=O)c1ccc(NC(=O)c2ccc(C(C)(C)C)cc2)cc1` [Compound 44, 2-methoxyethyl 4-[(4-tert-butylbenzoyl)amino]benzoate], the “Survival at 72 hours” value is given as “−”. On to `COc1ccccc1NC(=O)/C(=C\c1cccs1)NC(=O)c1ccc(C(C)(C)C)cc1` [Compound 46, 4-tert-butyl-N-[1-{[(2-methoxyphenyl)amino]carbonyl}-2-(2-thienyl)vinyl]benzamide], for which the “Survival at 72 hours” value was “+”. On to `Cc1ccc(/C=C/C(=O)Nc2cccc(Cl)c2Cl)o1` [Compound 47, N-(2,3-dichlorophenyl)-3-(5-methyl-2-furyl)acrylamide], for which the “Survival at 72 hours” value is on record as “−”. For `O=C1NC(=O)N(c2ccccc2Cl)C(=O)C1=Cc1ccccc1` [Compound 48, 5-benzylidene-1-(2-chlorophenyl)-2,4,6(1H,3H,5H)-pyrimidinetrione], the “Survival at 72 hours” value is “+”. Regarding `O=C(Nc1ccccc1)Nc1nnc(C23CC4CC(CC(C4)C2)C3)s1` [Compound 49, N-[5-(1-adamantyl)-1,3,4-thiadiazol-2-yl]-N′-phenylurea], the “Survival at 72 hours” value is given as “+/−”.

Take `CCc1nc(-c2ccccc2)nc(C)c1C` [Compound 50, 4-ethyl-5,6-dimethyl-2-phenylpyrimidine]: the “Survival at 72 hours” value is recorded as “+”.

Regarding `COc1ccc(NC(=O)c2ccccc2Cl)cc1Cl` [Compound 51, 2-chloro-N-(3-chloro-4-methoxyphenyl)benzamide], the “Survival at 72 hours” value was “+”.

Take `Cc1ccc(OCc2nnc(NC(=O)Nc3ccc(Cl)c(Cl)c3)s2)cc1` [Compound 53, N-(3,4-dichlorophenyl)-N′-{5-[(4-methylphenoxy)methyl]-1,3,4-thiadiazol-2-yl}urea]: the “Survival at 72 hours” value is given as “+/−”. In the case of `O=C(/C=C/c1cccc(C(F)(F)F)c1)Nc1ccc(F)cc1` [Compound 54, N-(4-fluorophenyl)-3-[3-(trifluoromethyl)phenyl]acrylamide], the “Survival at 72 hours” value is listed as “−”.

Take `O=C1c2ccccc2NC(c2ccccc2O)N1Cc1ccco1` (stereo not drawn) [Compound 55, 3-(2-furylmethyl)-2-(2-hydroxyphenyl)-2,3-dihydro-4(1H)-quinazolinone]: the “Survival at 72 hours” value is listed as “−”.

The next series has as its system RAW264.7 cells. Nature of the series: Toxicity test on osteoclast precursors. It counts as cell-based. The conditions noted are these: RAW264.7 cells grown 72 hours with 10 to 100 μM of compound, vs 0.5% DMSO control. On the procedure: The selected compounds were then tested for their toxicity on osteoclast precursors. […] RAW264.7 cells used as osteoclasts […] were allowed to grow for 72 hours with 10 to 100 μM of compound. The growth of the cells was compared to control cells which were grown with 0.5% DMSO.
`O=Cc1cn(Cc2ccc(Cl)c(Cl)c2)c2ccccc12` [Compound 35, 1-(3,4-dichlorobenzyl)-1H-indole-3-carbaldehyde]: the “Concentration μM (optimal concentration which does not affect the growth of the cells)” value is 50 µM. With `O=C1NC(=O)N(c2ccccc2Cl)C(=O)C1=Cc1ccccc1` [Compound 48, 5-benzylidene-1-(2-chlorophenyl)-2,4,6(1H,3H,5H)-pyrimidinetrione], the “Concentration μM (optimal concentration which does not affect the growth of the cells)” value is 100 µM.
